The molecules below were run against T1, human GPR39 receptor (Homo sapiens, UniProt O43194) (assay: Measurement of intracellular calcium response in PC3 cells (FLIPR), antagonism of the C3 agonist response). Details: functional pKi (modified Cheng-Prusoff), inhibition of the C3 (TC-G 1008) response at EC90, 30 μM ZnCl2, read-out: fpKi activity.
T1 construct: PC3 Cells, Expressing the Endogenous Human GPR39 Receptor; endogenous in cells; host or cells: PC3 (human prostate adenocarcinoma) cells
T1 sequence (O43194 1-453): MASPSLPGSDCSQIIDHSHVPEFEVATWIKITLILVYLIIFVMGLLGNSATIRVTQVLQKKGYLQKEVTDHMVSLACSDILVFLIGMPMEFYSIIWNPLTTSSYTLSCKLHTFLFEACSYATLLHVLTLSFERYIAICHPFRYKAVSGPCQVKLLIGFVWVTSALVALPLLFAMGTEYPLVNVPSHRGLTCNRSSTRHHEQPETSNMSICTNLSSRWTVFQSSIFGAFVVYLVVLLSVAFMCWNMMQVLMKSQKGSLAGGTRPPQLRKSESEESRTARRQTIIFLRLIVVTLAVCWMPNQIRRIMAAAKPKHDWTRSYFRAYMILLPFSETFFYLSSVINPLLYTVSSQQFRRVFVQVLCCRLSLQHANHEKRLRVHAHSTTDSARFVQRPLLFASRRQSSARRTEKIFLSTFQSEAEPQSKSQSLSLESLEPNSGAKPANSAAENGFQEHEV
Type: cell-based
Method in brief: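 PC3 cells with endogenous human GPR39 were loaded with Calcium-6 and read by FLIPR, with compounds tested in buffer with 30 μM final ZnCl2 and 0.32% DMSO. Peak Ca2+ signal was scored as % inhibition of the EC90 C3 response, fitted by four-parameter logistic. Functional pKi was derived via the modified Cheng-Prusoff equation.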
Molecule `CCCN1CCN(C(=O)c2ccc(NC(=O)C3CC3)cc2-n2ccc(C)n2)CC1` [Example 8, N-(3-(3-methyl-1H-pyrazol-1-yl)-4-(4-propylpiperazine-1-carbonyl)phenyl)cyclopropanecarboxamide] has a Ki of 0.0631 to 0.251 µM. In the case of `CCCN1CCN(C(=O)c2ccc(NC(=O)C3CC3)cc2N2CCC3(CCC3)C2)CC1` [Example 1, N-(4-(4-propylpiperazine-1-carbonyl)-3-(6-azaspiro[3.4]octan-6-yl)phenyl)cyclopropanecarboxamide], the Ki is reported as no more than 0.0501 µM. Work on `CC1CN(C(=O)c2ccc(NC(=O)C3CC3)cc2N2CCCCCC2)CCN1C` (centres unmarked) [Example 55, N-[3-(azepan-1-yl)-4-(3,4-dimethylpiperazine-1-carbonyl)phenyl]cyclopropanecarboxamide] yielded a Ki of 0.316 to 1 µM. Work on `CCCN1CCN(C(=O)c2ccc(NC(=O)C3CC3)cc2N2C[C@@H](C)C[C@H](C)C2)CC1` (relative stereo) [Example 14b] yielded a Ki of 0.0631 to 0.251 µM. `CN1CCN(C(=O)c2ccc(NC(=O)C3CC3)cc2N2CCC(F)(F)C2)C(c2ccccc2)C1` (single isomer, unassigned) [Example 202a, N-[3-(3,3-difluoropyrrolidin-1-yl)-4-(2R or 2S)-4-methyl-2-phenylpiperazine-1-carbonyl)phenyl]cyclopropanecarboxamide] gave a Ki of 1.26 to 6.31 µM. Work on `CN1CCN(C(=O)c2ccc(NC(=O)C3CC3)cc2N2CCCC2)C(c2ccccc2Cl)C1` (racemic) [Example 170c, N-[4-[2-(2-chlorophenyl)-4-methylpiperazine-1-carbonyl]-3-pyrrolidin-1-ylphenyl]cyclopropanecarboxamide] yielded a Ki of no more than 0.0501 µM. For `CN1CCN(C(=O)c2ccc(NC(=O)C3CC3)cc2N2CCC3(CCC3)C2)C(c2ccccc2)C1` (racemic) [Example 66c, N-[3-(6-azaspiro[3.4]octan-6-yl)-4-(4-methyl-2-phenylpiperazine-1-carbonyl)phenyl]cyclopropanecarboxamide], the Ki was no more than 0.0501 µM. In the case of `Cc1nnc(-c2ccc(C(=O)N3CCN(C)CC3c3ccccc3)c(N3CCCC3)c2)[nH]1` (racemic) [Example 150c, (4-methyl-2-phenylpiperazin-1-yl)-[4-(5-methyl-4H-1,2,4-triazol-3-yl)-2-pyrrolidin-1-ylphenyl]methanone], the Ki is reported as 0.0631 to 0.251 µM. In the case of `C[C@@H]1C[C@H](C)CN(c2cc(NC(=O)C3CC3)ccc2-c2ncc3n2CCN(C)C3)C1` [Example 104b, N-[3-(3,5-dimethylpiperidin-1-yl)-4-(7-methyl-6,8-dihydro-5H-imidazo[1,5-a]pyrazin-3-yl)phenyl] cyclopropanecarboxamide], the Ki is reported as 0.0631 to 0.251 µM. With `O=C(Nc1ccc(C(=O)N2CCN(Cc3ccccc3F)CC2)c(N2CCCCCC2)c1)C1CC1` [Example 28, N-(3-(azepan-1-yl)-4-(4-(2-fluorobenzyl)piperazine-1-carbonyl)phenyl) Cyclopropanecarboxamide] the Ki was 0.0631 to 0.251 µM. `Cc1noc(C)c1CN1CCN(C(=O)c2ccc(NC(=O)C3CC3)cc2N2CCCCCC2)C(c2ccccc2)C1` (centres unmarked) [Example 81, N-[3-(azepan-1-yl)-4-[4-[(3,5-dimethyl-1,2-oxazol-4-yl)methyl]-2-phenylpiperazine-1-carbonyl]phenyl]cyclopropanecarboxamide] gave a Ki of 0.316 to 1 µM. In the case of `O=C(Nc1ccc(C(=O)N2CCNCC2c2ccccc2F)c(N2CCCC2)c1)C1CC1` (racemic) [Example 157], the Ki is reported as 1.26 to 6.31 µM. `O=C(Nc1ccc(C(=O)N2CCC3(CC2)COC3)c(N2CCC(C(F)(F)F)C2)c1)C1CC1` (single isomer, unassigned) [Example 213a, N-[4-(2-oxa-7-azaspiro[3.5]nonane-7-carbonyl)-3-[3R or 3S-(trifluoromethyl)pyrrolidin-1yl]phenyl]cyclopropanecarboxamide] showed a Ki of no more than 0.0501 µM. `O=C(Nc1ccc(C(=O)N2CCC3(CC2)CC3)c(N2CCCC2)c1)C1CC1` [Example 220, N-[4-(6-azaspiro[2.5]octane-6-carbonyl)-3-pyrrolidin-1-ylphenyl]cyclopropanecarboxamide] gave a Ki of 0.0631 to 0.251 µM. `CCCN1CCN(C(=O)c2ccc(NC(=O)C3CC3)cc2N2CC[C@@H](C(C)C)C2)CC1` [Example 2, (S)-N-(3-(3-isopropylpyrrolidin-1-yl)-4-(4-propylpiperazine-1-carbonyl)phenyl)cyclopropanecarboxamide] gave a Ki of no more than 0.0501 µM. In the case of `O=C(Nc1ccc(C(=O)N2CCS(=O)(=O)CC2)c(N2CCCC(C(F)(F)F)C2)c1)C1CC1` (single isomer, unassigned) [Example 185b, N-[4-(1,1-dioxo-1,4-thiazinane-4-carbonyl)-3-[3R or 3S-(trifluoromethyl)piperidin-1-yl]phenyl]cyclopropanecarboxamide], the Ki is reported as no more than 0.0501 µM. Molecule `O=C(Nc1ccc(C(=O)N2CCC(F)CC2)c(N2CCCC2)c1)C1CC1` [Example 168, N-[4-(4-fluoropiperidine-1-carbonyl)-3-pyrrolidin-1-ylphenyl]cyclopropanecarboxamide] has a Ki of 0.316 to 1 µM. For `O=C(Nc1ccc(C(=O)N2CCC3(CC2)COC3)c(N2CCC(C(F)(F)F)C2)c1)C1CC1` (racemic) [Example 213c, N-[4-(2-oxa-7-azaspiro[3.5]nonane-7-carbonyl)-3-[3-(trifluoromethyl)pyrrolidin-1-yl]phenyl]cyclopropanecarboxamide], the Ki was 0.0631 to 0.251 µM. `O=C(Nc1ccc(C(=O)N2CCN(Cc3ccon3)CC2)c(N2CCCCCC2)c1)C1CC1` [Example 22, N-(3-(azepan-1-yl)-4-(4-(isoxazol-3-ylmethyl)piperazine-1-carbonyl)phenyl) cyclopropanecarboxamide] gave a Ki of 0.0631 to 0.251 µM. Molecule `CN1CCN(C(=O)c2ccc(NC(=O)C3CC3)cc2-n2cc(C(F)(F)F)cn2)C(c2ccccc2)C1` (centres unmarked) [Example 207, N-[4-(4-methyl-2-phenylpiperazine-1-carbonyl)-3-[4-(trifluoromethyl)pyrazol-1-yl]phenyl]cyclopropanecarboxamide] has a Ki of 0.316 to 1 µM. Work on `CN1CCN(C(=O)c2ccc(NC(=O)C3CC3)cc2N2CCC3(CCC3)C2)C(c2ccccc2)C1` (single isomer, unassigned) [Example 66b, N-[3-(6-azaspiro[3.4]octan-6-yl)-4-(4-methyl-2-phenylpiperazine-1-carbonyl)phenyl]cyclopropanecarboxamide] yielded a Ki of 0.316 to 1 µM. Molecule `O=C(Nc1ccc(C(=O)N2CCS(=O)(=O)CC2)c(-n2ccc(C3CC3)n2)c1)C1CC1` [Example 180, N-[3-(3-cyclopropylpyrazol-1-yl)-4-(1,1-dioxo-1,4-thiazinane-4-carbonyl)phenyl]cyclopropanecarboxamide] has a Ki of no more than 0.0501 µM. Molecule `CN1CCN(C(=O)c2ccc(NC(=O)C3CC3)cc2N2CCCC2)C(c2cccs2)C1` (single isomer, unassigned) [Example 86a, N-[4-(4-methyl-2-thiophen-2-ylpiperazine-1-carbonyl)-3-pyrrolidin-1-ylphenyl]cyclopropanecarboxamide] has a Ki of 1.26 to 6.31 µM. `CSc1nnc(-c2ccc(NC(=O)C3CC3)cc2N2CCCCCC2)n1C` [Example 109, N-[3-(azepan-1-yl)-4-(4-methyl-5-methylsulfanyl-1,2,4-triazol-3-yl)phenyl]Cyclopropanecarboxamide] gave a Ki of 1.26 to 6.31 µM. Work on `CC1CN(c2cc(NC(=O)C3CC3)ccc2C(=O)N2CCS(=O)(=O)CC2)CC(C)O1` (racemic) [Example 188, N-[3-[(anti)-2,6-dimethylmorpholin-4-yl]-4-(1,1-dioxo-1,4-thiazinane-4-carbonyl)phenyl]cyclopropanecarboxamide] yielded a Ki of 1.26 to 6.31 µM. For `CN1CCN(C(=O)c2ccc(NC(=O)C3CC3)cc2N2CCCC2)C(c2ccc(Cl)cc2)C1` (racemic) [Example 176, N-[4-[2-(4-chlorophenyl)-4-methylpiperazine-1-carbonyl]-3-pyrrolidin-1-ylphenyl]cyclopropanecarboxamide], the Ki was 0.316 to 1 µM. `CCCN1CCN(C(=O)c2ccc(NC(=O)C3CC3)cc2N2CCc3ccccc3C2)CC1` [Example 18, N-(3-(3,4-dihydroisoquinolin-2(1H)-yl)-4-(4-propylpiperazine-1-carbonyl)phenyl)cyclopropane carboxamide] was tested, and the Ki was 0.316 to 1 µM. In the case of `CN1CCN(C(=O)c2ccc(NC(=O)C3CC3)cc2N2CCCC2)C(c2ccncc2Cl)C1` (racemic) [Example 174, N-[4-[2-(3-chloropyridin-4-yl)-4-methylpiperazine-1-carbonyl]-3-pyrrolidin-1-ylphenyl]cyclopropanecarboxamide], the Ki is reported as 0.0631 to 0.251 µM. `CCCN1CCN(C(=O)c2ccc(NC(=O)C3CCC3)cc2N2CCCCCC2)CC1` [Example 90, N-(3-(azepan-1-yl)-4-(4-propylpiperazine-1-carbonyl)phenyl)cyclobutanecarboxamide] showed a Ki of 1.26 to 6.31 µM. `CCCN1CCN(C(=O)c2ccc(NC(=O)C3CC3)nc2N2CCCCCC2)CC1` [Example 108] gave a Ki of 0.0631 to 0.251 µM. `CC1CCN(c2cc(NC(=O)C3CC3)ccc2C(=O)N2CCN(C)CC2c2ccccc2)C1` (single isomer, unassigned) [Example 64a, (2S, 3R) or (2R, 3S) or (2R, 3R) or (2S, 3S) N-[4-(4-methyl-2-phenylpiperazine-1-carbonyl)-3-(3-methylpyrrolidin-1-yl)phenyl] cyclopropanecarboxamide] gave a Ki of no more than 0.0501 µM. `CN1CCN(C(=O)c2ccc(NC(=O)C3CC3)cc2N2CCCC2)C(c2ccccc2F)C1` (single isomer, unassigned) [Example 84a, N-[4-[2-(2-fluorophenyl)-4-methylpiperazine-1-carbonyl]-3-pyrrolidin-1-ylphenyl]cyclopropanecarboxamide] showed a Ki of 0.0631 to 0.251 µM.

Source: patent US20230174484A1, “ANTAGONISTS OF GPR39 PROTEIN” (Oregon Health & Science University, priority 2020, published 2023)
